{"source": "patent US7655756B2", "about": "(Johnson & Johnson Pharmaceutical Research & Development, LLC, priority 2005, dated 2010)", "key": {"ERRβ": {"biological_target": "T1, ERRβ (Homo sapiens, UniProt O95718)", "T1 sequence (O95718 208-432 limits assumed)": "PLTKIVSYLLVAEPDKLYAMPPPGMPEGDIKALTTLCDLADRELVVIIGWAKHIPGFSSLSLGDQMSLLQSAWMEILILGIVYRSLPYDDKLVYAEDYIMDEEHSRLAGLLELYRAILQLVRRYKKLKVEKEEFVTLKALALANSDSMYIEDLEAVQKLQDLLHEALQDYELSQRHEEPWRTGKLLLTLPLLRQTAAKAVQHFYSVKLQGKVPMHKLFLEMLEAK", "test": "ThermoFluor thermal shift assay, ERRβ", "type": "binding", "settings": "100 μM test compound; 0.1 mg/mL protein, 25 mM HEPES pH 8.0; Tm free protein 47.5 °C; read-out: ΔTm, thermal stabilization of ERRβ"}, "[1]": {"biological_target": "T2, ligand binding domain of ERRγ (Homo sapiens, UniProt P62508)", "T2 construct": "6His; made in house; host or cells: E. coli BL21(DE3)", "T2 sequence (P62508 229-458)": "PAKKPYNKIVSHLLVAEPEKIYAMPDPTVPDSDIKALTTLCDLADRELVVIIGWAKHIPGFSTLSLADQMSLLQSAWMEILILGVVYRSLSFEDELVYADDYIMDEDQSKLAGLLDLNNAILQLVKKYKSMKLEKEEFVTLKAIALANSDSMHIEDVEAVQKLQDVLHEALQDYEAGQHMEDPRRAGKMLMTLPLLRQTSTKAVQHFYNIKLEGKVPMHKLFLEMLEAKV", "test": "ThermoFluor thermal shift assay, ERRγ ligand binding domain", "settings": "0.1 mg/mL protein, 25 mM HEPES pH 8.0, Tm free protein 49.6 °C", "method": "The vector was in E. coli BL21(DE3) and cultured in Minimal media (M9) at 37° C. to an OD595 0.6-0.8, followed by induction at 15° C. with 0.4 mM IPTG for 20 hours. The next day, the culture was harvested and lysed in buffer A (Buffer A: 20 mM Tris-HCl, pH 7.5, 0.4 M NaCl and 5 mM Imidazole) using an Emulsiflex-C5 french press (Avestin). Lysates were spun at 40,000×g for 45 minutes to remove insoluble material. The clarified lysate was applied on a Ni-NTA column and eluted with a linear gradient of imidazole. The protein was further purified by applying the eluent on a Superdex 200 HR 10/30 column (Amersham Pharmacia Biotech) equilibrated with Buffer B (Buffer B: 20 mM Tris-HCl pH 7.5, 0.2M NaCl, 1 mM EDTA and 1 mM DTT). […] Fractions were pulled and concentrated to 4 mg/ml and frozen in liquid nitrogen and stored at −80° C.\nThe ligand binding domain of ERRγ was screened against a library of known estrogen activators and a generic drug library using ThermoFluor®. ThermoFluor® is a miniaturized thermal shift assay, that has been developed for HTS applications; as a secondary assay for confirmation and characterization of hits; and as a functional assay to characterize orphan proteins. ThermoFluor® exploits the well-described phenomenon of ligand induced stabilization of macromolecules. Ligand binding energy adds directly to the ground state energy of a macromolecule and results in increased thermal stability. The degree of stabilization is proportional to the binding affinity of the ligand for the macromolecule.\nAssay plates were prepared by dispensing 2 μL of a protein-dye solution and 2 μL of the test compound in a 384-well plate. […] Finally 1 μL of mineral oil was dispensed on top to prevent evaporation during the high throughput screen (HTS). ThermoFluor® is an HTS assay that measures protein unfolding based on fluorescence detection of the denatured form of the protein. The reporter for the protein unfolding event is the environmentally sensitive dye ANS that is incorporated in the screening buffer. During a typical experiment the 384-well plate is heated at a ramping rate of 1° C./min and the thermal unfolding of the protein is monitored at 1° C. intervals by measuring fluorescence changes detected through a CCD camera. Captured images are integrated and a melting curve is generated that relates fluorescence to fraction of unfolded protein as a function of temperature. […] Hits were identified from the screen by measuring an increase in the melting temperature of the protein.\nIn order to estimate binding affinities, it was taken into account that the oligomeric state of ERRγ which is a dimer (N2), and that of a single ligand (Lf) can interact per monomer subunit with equal affinity. The melting curve for such a system is described by the following three equilibria:\nTo compare dissociation constants at a common reference temperature, Tref, the following equation was used: […]\nIn the thermodynamic treatment of the data the following assumptions were made: i) the small ligand interacts only with the folded state of the protein, ii) the reactions are reversible; iii) the unfolding protein reaction is a two-state process and iv) ideal dilute solutions are being used (specific activity for protein and ligands is equal to 1)."}, "ERβ": {"biological_target": "ERβ (Homo sapiens, UniProt Q92731)", "sequence (Q92731 whole entry, species assumed)": "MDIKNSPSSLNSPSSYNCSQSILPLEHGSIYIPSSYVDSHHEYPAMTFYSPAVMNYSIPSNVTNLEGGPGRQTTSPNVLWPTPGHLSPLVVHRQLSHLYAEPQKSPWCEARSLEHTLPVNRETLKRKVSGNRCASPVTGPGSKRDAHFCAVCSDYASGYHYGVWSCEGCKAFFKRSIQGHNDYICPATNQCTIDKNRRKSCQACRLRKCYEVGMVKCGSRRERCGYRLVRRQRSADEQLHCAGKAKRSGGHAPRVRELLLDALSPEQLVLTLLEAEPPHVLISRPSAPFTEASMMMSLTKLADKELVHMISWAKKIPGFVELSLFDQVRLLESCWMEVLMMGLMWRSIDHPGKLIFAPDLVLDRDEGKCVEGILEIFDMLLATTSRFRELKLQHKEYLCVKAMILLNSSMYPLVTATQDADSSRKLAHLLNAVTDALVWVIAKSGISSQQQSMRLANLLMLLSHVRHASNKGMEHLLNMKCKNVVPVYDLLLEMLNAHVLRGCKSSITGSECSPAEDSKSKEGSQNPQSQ", "test": "ThermoFluor thermal shift assay, ERβ", "type": "binding"}, "ERRγ": {"biological_target": "T3, ERRγ (Homo sapiens, UniProt P62508)", "T3 construct": "6His; made in house; host or cells: E. coli BL21(DE3)", "T3 sequence (P62508 229-458)": "T2 sequence (P62508 229-458)", "test": "Isothermal titration calorimetry", "type": "binding", "settings": "isothermal titration calorimetry", "method": "The heat of interaction of the ligands with ERRγ molecules was measured by using the Omega titration calorimeter from Microcal Inc. In a typical titration, 1.4 mL of a 20 μM protein solution is titrated with a ligand solution of ˜0.4 mM concentration using a 100 μL syringe by ˜20 injections of 5-6 μL each. This syringe is also used to mix the reactants completely in the sample cell by rotating it at 400 rpm. For each injection, the area under the resulting peak is proportional to the heat of interaction, Q. Once this heat is corrected for the titrant dilution and normalized by the titrant solution concentration it becomes equal to the binding enthalpy, ΔHb, under nonsaturating conditions. The precision of the heat of each injection is about 0.5 μcal. One method of determining ΔHb is to average several intermediate peaks from the different sites. In addition to the binding enthalpies, one can obtain binding affinities, and overall stoichiometries of the complexes. The experimental calorimetric binding isotherm is the dependence of the total heat, Qr, (or dQrldX T) on the total concentration of ligand added, Xr. The above three parameters for each type of site are determined iteratively using the Marquardt algorithms as described previously."}, "pBIND-Gal4-ERRγ": {"system": "pBIND-Gal4-ERRγ", "test": "Cell based reporter (trans-activation) assay in HEK293E cells", "settings": "luciferase reporter, Gal4-ERRγ and pACT-SRC2, 24 hours of compound treatment"}}, "data": [{"smiles": "Cc1cc(O)ccc1Cl", "note": "[ClCH3Ph, 4-chloro, 3-methyl phenol]", "values": [{"measurement": "ΔTm at 100 µM", "setting": "ERRβ", "result": 0.2, "unit": "°C"}, {"measurement": "ΔTm, thermal stabilization of ERRγ", "setting": "[1]; 100 μM test compound", "result": 3.9, "unit": "°C"}, {"measurement": "ΔTm at 100 µM", "setting": "[1]; pH 8, read-out: ΔTm, thermal stabilization of ERRγ, 100 μM test compound", "result": "4 to 5.7", "unit": "°C"}, {"measurement": "Kd", "setting": "ERβ", "result": 3.05, "unit": "µM"}, {"measurement": "ΔTm at 100 µM", "setting": "ERβ; pH 8, read-out: ΔTm, thermal stabilization of ERβ", "result": 2.4, "unit": "°C"}, {"measurement": "Binding enthalpy ΔHb", "setting": "ERRγ", "result": "~-21", "unit": "kcal/mol"}, {"measurement": "Change in transcriptional activity in trans-activation cellular assay, in words", "setting": "pBIND-Gal4-ERRγ", "result": "not able to demonstrate"}]}]}
